According to US20050059610A1 (priority 2003, published 2005):
“Also recorded” adds a separate entry of the source. Read-outs that look alike come from different tables or passages of the source.

Key:
[1] = system: peripheral blood mononuclear cells; assay: Glutamine-treated peripheral blood mononuclear cells; type: cell-based
critically ill humans = conditions: cited from earlier work; for tolerability of the maximum dose previously administered in humans: even in critically ill patients
sepsis (CLP) = assay: CLP with or without quercetin (HSP 70 inhibitor): survival, lung HSP/NOS, metabolism, TNF; type: in vivo, Sprague-Dawley rats
Method: Methods: Male Sprague-Dawley rats were divided into 5 groups. Two groups were treated with 400 mg/kg of quercetin (Q) IP (HSP 70 inhibitor) 6 hours pre-CLP. […] The final group (CONT, n=6) received no treatment. Five-day survival was monitored. In separate studies, lung was harvested 24-hours post-CLP and tissue metabolism analyzed by 31P- and 1H-MRS. A final study analyzed blood for TNF- at 6 hours post-CLP and lung tissue 6 hours post-CLP for HSP-70, iNOS, eNOS, and activated heat shock factor-1 (HSF-1).

experimental SIRS (CLP) = assay: Serum HSP72 (ELISA) and survival after CLP (experimental SIRS); type: in vivo, Sprague-Dawley rats
HSP 72 and 27 = assay: HSP expression in hearts of LPS-injured rats (Western blot); type: in vivo, rat; conditions: 0.75 g/kg GLN with 5 mg/kg LPS; six hours; vs LR control
Method: GLN enhances heat shock protein expression in the unstressed and stressed myocardium. […] The increase was also observed for HSP 27 (another of the protective heat shock proteins) wherein the induction occurred as early as 4-6 hours and persisted for up to 48-72 hours.
Tissues were harvested six hours post-LPS injury and analyzed for HSP 72 expression via Western blot. Each lane represents protein extracts from a separate animal. Relative densitometry are expressed as means ±SE. *−p<0.0005, compared with LR resuscitation alone assessed by Students t test.

[2] = system: myocardial tissue metabolism; assay: Rat working heart model, myocardial tissue metabolism by 1H-/31P-MRS; type: in vivo
Method: The tissue was analyzed for ATP, ADP, and ATP/ADP ratio via ^31P-magnetic resonance spectroscopy (MRS) and for creatine/phosphocreatine content via ^1H-magnetic resonance spectroscopy (MRS). […] The tissue was analyzed for lactate content via ^1H-MRS. […] Glutamine pretreatment enhances myocardial tissue content (glutamine, glutamate, and glucose) content following myocardial I/R injury in the rat. […] Glutamate is a vital tissue substrate following myocardial injury and it is beneficial that a single dose of […]/R injury can preserve tissue levels of this key substrate following injury. […] This key finding confirms that it is possible to enhance myocardial tissue substrate content (particularly glutamate) with a (pre-operative) remote GLN pre-treatment dose. […] Substrates were analyzed via ^1H-MRS. […] The tissue was analyzed for myocardial tissue reduced glutathione content via ^1H-magnetic resonance spectroscopy (MRS). […] Glutamine pretreatment preserves myocardial NAD (+)/NADH content following myocardial I/R injury in the rat. […] The tissue was analyzed for NAD (+)/NADH content via ^31P-magnetic resonance spectroscopy (MRS). […] NAD(+)/NADH was analyzed via […]. (**-p<0.01 versus pre-ischemic values, ##-p<0.01 versus post-ischemic LR control tissue via ANOVA.)

[3] = system: infection in patients following bone marrow transplantation; conditions: parenteral nutritional program supplemented with glutamine (Calder and Yapoob 1999); cited from earlier work
[4] = GLN 0.75 g/kg IV one-hour post-CLP, 6 hours post-CLP

## NC(=O)CC[C@H](N)C(=O)O [GLN, Glutamine]
[1]
  heat shock protein expression: increase
  tumor-necrosis alpha release: significant attenuation
Critically ill humans
  tolerability of the maximum dose previously administered in humans: without adverse side effects
Critically ill humans; listed as L-Glutamine
  tolerability of the maximum dose previously administered in humans: tolerated well without adverse side effects
Critically ill humans; variety of clinical settings
  toxicity in critically ill humans: without any evidence of toxicity
Sepsis (CLP); 24-hours post-CLP, MRS
  lung NAD+: improved
  lung lactate accumulation: attenuated
Sepsis (CLP); 6 hours post-CLP
  lung eNOS: enhanced
  lung iNOS: attenuated
  plasma TNF- expression: attenuated
Sepsis (CLP); GLN 0.75 g/kg IV one-hour post-CLP
  5-day survival: significant improvement
Sepsis (CLP); [4]
  lung HSF-1 activation: enhanced
  lung HSP70 expression: enhanced
Experimental SIRS (CLP); 5 days, BSS 18%
  survival following experimental SIRS: 61%
Experimental SIRS (CLP); GLN (given as ALA-GLN) 0.75 g/Kg 1 hour post-CLP, 6 hours post-CLP
  sHSP72 vs. BSS (ELISA): significantly enhanced
HSP 72 and 27
  HSP 72 and 27 expression in heart (western blot): markedly enhanced
[2]; 0.52 g/kg GLN 18 hours prior, vs control
  total ATP content following I/R injury: improved
[2]; GLN 18 hours prior
  accumulation of myocardial lactate following I/R injury: significant decrease; also recorded: decreased
[2]; GLN 18 hours prior, 1H-MRS
  myocardial tissue content of glutamine and glucose following I/R injury versus LR control: enhanced
  myocardial tissue creatine/phosphocreatine content following I/R injury: enhanced
  myocardial tissue reduced glutathione content following I/R injury: marked enhancement; also recorded: improved
  post-ischemic glutamate levels versus pre-ischemic levels: no decrease
[2]; GLN 18 hours prior, MRS
  myocardial NAD(+)/NADH content following I/R injury: significant preservation; also recorded: improved
[2]; GLN 18 hours prior, post I/R, 1H-MRS
  reduction of the increase in tissue lactate versus control animals: > 55%
[3]
  level of infection: lower level of infection
